{
  "source": "patent US20220380829A1",
  "about": "“Method of Diagonosizing Pathogens and their Antimicrobial Susceptibility” (HANGZHOU DIAN MEDICAL LABORATORY CO., LTD., priority 2019, published 2022)",
  "assay_type_in_all_cases": "cell-based",
  "key": {"[1]": {"test_system": "Klebsiella pneumoniae", "assay": "VITEK2 Compact AST (AST-GN13/GN334 cards), gold standard culture-based AST", "from_the_text": "Step 1. Sample collection and drug susceptibility verification: 240 clinical Klebsiella pneumoniae isolates were collected from 23 hospitals across china in a period between January 2018 and March 2019."}, "[2]": {"test_system": "Staphylococcus aureus", "assay": "VITEK2 Compact AST (AST-P639 card), gold standard culture-based AST", "conditions": "for Resistance profiles by VITEK2: R: number of resistant among 22 blinds; for Resistance profiles by VITEK2: S: number of susceptible among 22 blinds", "protocol": "Step 1. Sample collection and drug susceptibility verification: 160 clinical Staphylococcus aureus isolates were collected from 20 hospitals across china in a period between June 2018 and June 2019. All isolates were tested for drug susceptibility using bioMérieux Vitek2 Compact System and AST-P639 card, and specifically, and the results were used as the gold standard (culture-based AST)."}, "[3]": {"test_system": "Enterococcus faecalis", "assay": "VITEK2 Compact AST (AST-P639 cards), gold standard culture-based AST"}, "[4]": {"test_system": "Streptococcus pneumoniae", "assay": "VITEK2 Compact AST (AST-GP68 cards) with penicillin disc diffusion, gold standard culture-based AST", "protocol": "(§1) Step 1. Drug susceptibility verification: The Streptococcus pneumoniae isolates were tested for drug susceptibility using bioMérieux Vitek2 Compact System and AST-GP68 cards, and specifically, the susceptibility of penicillin was double checked by disc diffusion method (OXOID, CT0043B), and the combined results were used as the gold standard (culture-based AST).\nas §1, with “Sample collection and drug” for “Drug”, “48 clinical” for “The”, “pneumoniae isolates were collected from 18 hospitals across china in a period between May 2017 and October 2019. All” for “pneumoniae”, “card,” for “cards,”"}, "[5]": {"conditions": "Resistance profile classification A"}, "[6]": {"conditions": "Resistance profile classification B"}, "[7]": {"conditions": "Resistance profile classification C"}, "[8]": {"conditions": "Resistance profile classification D"}, "[9]": {"conditions": "Resistance profile classification G"}, "[10]": {"conditions": "Resistance profile classification H"}, "[11]": {"conditions": "Resistance profile classification I"}, "[12]": {"conditions": "Resistance profile classification J"}, "[13]": {"conditions": "Resistance profile classification S"}},
  "data": [
    {"substance": "Gentamicin", "values": [
      {"measurement": "Resistance profiles by VITEK2: R", "setting": "[1]; number of resistant among 24 blinds", "value": 12},
      {"measurement": "Resistance profiles by VITEK2: S", "setting": "[1]; number of susceptible among 24 blinds", "value": 12},
      {"measurement": "Resistance profiles by VITEK2: R", "setting": "[2]", "value": 7},
      {"measurement": "Resistance profiles by VITEK2: S", "setting": "[2]", "value": 15}
    ]},
    {"substance": "penicillin", "values": [
      {"measurement": "Susceptibility of Emterococcus faecalis to 11 antibacterial drugs", "setting": "[3]; [5]", "value": "R"},
      {"measurement": "Susceptibility of Emterococcus faecalis to 11 antibacterial drugs", "setting": "[3]; [6]", "value": "R"},
      {"measurement": "Susceptibility of Emterococcus faecalis to 11 antibacterial drugs", "setting": "[3]; [7]", "value": "R"},
      {"measurement": "Susceptibility of Emterococcus faecalis to 11 antibacterial drugs", "setting": "[3]; [8]", "value": "R"},
      {"measurement": "Susceptibility of Emterococcus faecalis to 11 antibacterial drugs", "setting": "[3]; Resistance profile classification F (first line so labelled, r12)", "value": "R"},
      {"measurement": "Susceptibility of Emterococcus faecalis to 11 antibacterial drugs", "setting": "[3]; Resistance profile classification F (second line so labelled, r13)", "value": "R"},
      {"measurement": "Susceptibility of Emterococcus faecalis to 11 antibacterial drugs", "setting": "[3]; [9]", "value": "S"},
      {"measurement": "Susceptibility of Emterococcus faecalis to 11 antibacterial drugs", "setting": "[3]; [10]", "value": "S"},
      {"measurement": "Susceptibility of Emterococcus faecalis to 11 antibacterial drugs", "setting": "[3]; [11]", "value": "S"},
      {"measurement": "Susceptibility of Emterococcus faecalis to 11 antibacterial drugs", "setting": "[3]; [12]", "value": "S"},
      {"measurement": "Susceptibility of Emterococcus faecalis to 11 antibacterial drugs", "setting": "[3]; Resistance profile classification K", "value": "S"},
      {"measurement": "Susceptibility of Emterococcus faecalis to 11 antibacterial drugs", "setting": "[3]; Resistance profile classification L", "value": "S"},
      {"measurement": "Susceptibility of Emterococcus faecalis to 11 antibacterial drugs", "setting": "[3]; Resistance profile classification M", "value": "S"},
      {"measurement": "Susceptibility of Emterococcus faecalis to 11 antibacterial drugs", "setting": "[3]; [13]", "value": "S"},
      {"measurement": "Blind 1 by AST", "setting": "[4]; Blind 1", "value": "S"},
      {"measurement": "Susceptibility of Streptococcus pneumoniae to 14 antibacterial drugs", "setting": "[4]; [5]", "value": "R"},
      {"measurement": "Susceptibility of Streptococcus pneumoniae to 14 antibacterial drugs", "setting": "[4]; [6]", "value": "R"},
      {"measurement": "Susceptibility of Streptococcus pneumoniae to 14 antibacterial drugs", "setting": "[4]; [7]", "value": "R"},
      {"measurement": "Susceptibility of Streptococcus pneumoniae to 14 antibacterial drugs", "setting": "[4]; [8]", "value": "R"},
      {"measurement": "Susceptibility of Streptococcus pneumoniae to 14 antibacterial drugs", "setting": "[4]; Resistance profile classification E", "value": "R"},
      {"measurement": "Susceptibility of Streptococcus pneumoniae to 14 antibacterial drugs", "setting": "[4]; Resistance profile classification F", "value": "R"},
      {"measurement": "Susceptibility of Streptococcus pneumoniae to 14 antibacterial drugs", "setting": "[4]; [9]", "value": "S"},
      {"measurement": "Susceptibility of Streptococcus pneumoniae to 14 antibacterial drugs", "setting": "[4]; [10]", "value": "S"},
      {"measurement": "Susceptibility of Streptococcus pneumoniae to 14 antibacterial drugs", "setting": "[4]; [11]", "value": "S"},
      {"measurement": "Susceptibility of Streptococcus pneumoniae to 14 antibacterial drugs", "setting": "[4]; [12]", "value": "S"},
      {"measurement": "Susceptibility of Streptococcus pneumoniae to 14 antibacterial drugs", "setting": "[4]; [13]", "value": "S"},
      {"measurement": "blind 2 by AST", "setting": "[4]; blind 2", "value": "R"},
      {"measurement": "Resistance profiles by VITEK2: R", "setting": "[2]", "value": 20},
      {"measurement": "Resistance profiles by VITEK2: S", "setting": "[2]", "value": 2}
    ]}
  ]
}
